# Data taken from PubChem BioAssay AID292 (DTP/NCI, 2004).
# Several values for one entry are separate records, joined by “and”; a condition that tells them apart may be missing. Equal values may be shown once. Inconclusive results and toxic doses are left out.
# Tested on: B6C3F1 mice, ip Sarcoma M5076, median survival T/C
# Assay: NCI In Vivo Anticancer Drug Screen. Data for tumor model Sarcoma M5076 (intraperitoneal) in B6C3F1 mice
# Details: endpoint: median survival time, higher = longer survival
# Method in brief: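 Transplantable tumour in mice; compound-treated vs vehicle-treated groups. Read-out: survival. Value = treated/control ratio.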
# [1] = dose: 37.5 mg/kg/injection, schedule: Q04DX004 (ip), vehicle: saline with Tween-80
# [2] = dose: 75.0 mg/kg/injection, schedule: Q04DX004 (ip), vehicle: saline with Tween-80
# [3] = dose: 150.0 mg/kg/injection, schedule: Q04DX004 (ip), vehicle: saline with Tween-80
# [4] = dose: 25.0 mg/kg/injection, schedule: Q04DX004 (ip), vehicle: saline with Tween-80
# [5] = dose: 50.0 mg/kg/injection, schedule: Q04DX004 (ip), vehicle: saline with Tween-80
# [6] = dose: 100.0 mg/kg/injection, schedule: Q04DX004 (ip), vehicle: saline with Tween-80
# [7] = dose: 200.0 mg/kg/injection, schedule: Q04DX004 (ip), vehicle: saline with Tween-80
# [8] = dose: 50.0 mg/kg/injection, schedule: Q04DX004 (ip), vehicle: Klucel (hydroxypropylcellulose) (HPC)
# [9] = dose: 100.0 mg/kg/injection, schedule: Q04DX004 (ip), vehicle: Klucel (hydroxypropylcellulose) (HPC)
# [10] = dose: 200.0 mg/kg/injection, schedule: Q04DX004 (ip), vehicle: Klucel (hydroxypropylcellulose) (HPC)
smiles,measurement,setting,value
COC(=O)C12OCC34C(CC5C(C)C6=CC(=O)OC6=CC5(C)C3C(O)C1O)OC(=O)C(O)C24 (centres undefined),T/C,"dose: 0.25 mg/kg/injection, schedule: Q04DX003 (ip), vehicle: Klucel (hydroxypropylcellulose) (HPC)",107 % of control
same,T/C,"dose: 0.43 mg/kg/injection, schedule: Q04DX003 (ip), vehicle: Klucel (hydroxypropylcellulose) (HPC)",107 % of control
same,T/C,"dose: 0.5 mg/kg/injection, schedule: Q04DX004 (ip), vehicle: Klucel (hydroxypropylcellulose) (HPC)",111 % of control and 113 % of control
same,T/C,"dose: 0.72 mg/kg/injection, schedule: Q04DX003 (ip), vehicle: Klucel (hydroxypropylcellulose) (HPC)",103 % of control
same,T/C,"dose: 1.0 mg/kg/injection, schedule: Q04DX004 (ip), vehicle: Klucel (hydroxypropylcellulose) (HPC)",116 % of control and 122 % of control
same,T/C,"dose: 1.2 mg/kg/injection, schedule: Q04DX003 (ip), vehicle: Klucel (hydroxypropylcellulose) (HPC)",110 % of control
same,T/C,"dose: 2.0 mg/kg/injection, schedule: Q04DX003 (ip), vehicle: Klucel (hydroxypropylcellulose) (HPC)",112 % of control
same,T/C,"dose: 2.0 mg/kg/injection, schedule: Q04DX004 (ip), vehicle: Klucel (hydroxypropylcellulose) (HPC)",123 % of control
same,T/C,"dose: 4.0 mg/kg/injection, schedule: Q04DX004 (ip), vehicle: Klucel (hydroxypropylcellulose) (HPC)",116 % of control
C=CC(=O)OCCOCN(COCCOC(=O)C=C)c1nc(N(COCCOC(=O)C=C)COCCOC(=O)C=C)nc(N(COCCOC(=O)C=C)COCCOC(=O)C=C)n1,T/C,"dose: 18.75 mg/kg/injection, schedule: Q04DX004 (ip), vehicle: saline with Tween-80",103 % of control
same,T/C,[1],100 % of control
same,T/C,[2],110 % of control
same,T/C,[3],104 % of control
Nc1n[n+](-c2ccccc2)no1,T/C,"dose: 6.25 mg/kg/injection, schedule: Q04DX004 (ip), vehicle: water",111 % of control and 117 % of control
same,T/C,"dose: 12.5 mg/kg/injection, schedule: Q01DX009 (ip), vehicle: water",151 % of control
same,T/C,"dose: 12.5 mg/kg/injection, schedule: Q04DX004 (ip), vehicle: water",118 % of control
same,T/C,"dose: 25.0 mg/kg/injection, schedule: Q01DX009 (ip), vehicle: water",168 % of control
same,T/C,"dose: 50.0 mg/kg/injection, schedule: Q01DX009 (ip), vehicle: water",172 % of control and 235 % of control
CC(=O)Oc1ccccc1O,T/C,"dose: 6.25 mg/kg/injection, schedule: Q04DX004 (ip), vehicle: saline + Tween-80 + alcohol",112 % of control
same,T/C,"dose: 12.5 mg/kg/injection, schedule: Q04DX004 (ip), vehicle: saline + Tween-80 + alcohol",107 % of control
same,T/C,"dose: 25.0 mg/kg/injection, schedule: Q04DX004 (ip), vehicle: saline + Tween-80 + alcohol",95 % of control
same,T/C,"dose: 50.0 mg/kg/injection, schedule: Q04DX004 (ip), vehicle: saline + Tween-80 + alcohol",98 % of control
S=c1sc2ccccc2n1CN1CCOCC1,T/C,[4],105 % of control and 107 % of control
same,T/C,[5],95 % of control and 111 % of control
same,T/C,[6],90 % of control and 104 % of control
same,T/C,[7],96 % of control and 97 % of control
N#CC1C(=O)NC(=S)NC1CCc1ccccc1 (centres undefined),T/C,[8],95 % of control
same,T/C,[9],100 % of control
same,T/C,[10],108 % of control
COc1cc(/C=C/[N+](=O)[O-])cc(Br)c1OC,T/C,"dose: 12.5 mg/kg/injection, schedule: Q04DX004 (ip), vehicle: saline with Tween-80",95 % of control
same,T/C,[4],90 % of control
same,T/C,[5],94 % of control
same,T/C,[6],107 % of control
Nc1nc(=S)c2[nH]cnc2[nH]1,T/C,"dose: 3.0 mg/kg/injection, schedule: Q01DX004 (ip), vehicle: Klucel (hydroxypropylcellulose) (HPC)",163 % of control
same,T/C,"dose: 6.0 mg/kg/injection, schedule: Q01DX004 (ip), vehicle: Klucel (hydroxypropylcellulose) (HPC)",178 % of control
same,T/C,"dose: 12.0 mg/kg/injection, schedule: Q01DX004 (ip), vehicle: Klucel (hydroxypropylcellulose) (HPC)",182 % of control
same,T/C,"dose: 24.0 mg/kg/injection, schedule: Q04DX004 (ip), vehicle: Klucel (hydroxypropylcellulose) (HPC)",175 % of control
COc1ccc2c(n1)Sc1nc3ccccc3nc1N2,T/C,[1],92 % of control
same,T/C,[2],98 % of control
same,T/C,[3],87 % of control
CCNc1nc(NC(C)C)nc(-c2ccncc2)n1,T/C,"dose: 25.0 mg/kg/injection, schedule: Q04DX004 (ip), vehicle: Klucel (hydroxypropylcellulose) (HPC)",93 % of control
same,T/C,[8],95 % of control
same,T/C,[9],95 % of control
same,T/C,[10],95 % of control
O=c1[nH]cnc2c1ncn2C1CC2[O][Sn]([c]3ccccc3)([c]3ccccc3)[O]CC2O1 (centres undefined),T/C,"dose: 37.5 mg/kg/injection, schedule: Q04DX004 (ip), vehicle: distilled water + Tween-80",106 % of control
same,T/C,"dose: 75.0 mg/kg/injection, schedule: Q04DX004 (ip), vehicle: distilled water + Tween-80",104 % of control
same,T/C,"dose: 150.0 mg/kg/injection, schedule: Q04DX004 (ip), vehicle: distilled water + Tween-80",101 % of control
same,T/C,"dose: 300.0 mg/kg/injection, schedule: Q04DX004 (ip), vehicle: distilled water + Tween-80",105 % of control
same,T/C,"dose: 600.0 mg/kg/injection, schedule: Q04DX004 (ip), vehicle: distilled water + Tween-80",110 % of control
O=C1N[C@H]2[C@H](O)[C@H](O)[C@@H](O)[C@H](O)[C@@H]2c2cc3c(c(O)c21)OCO3,T/C,"dose: 1.5 mg/kg/injection, schedule: Q04DX004 (ip), vehicle: saline + alcohol",115 % of control and 121 % of control
same,T/C,"dose: 3.0 mg/kg/injection, schedule: Q01DX009 (ip), vehicle: saline + alcohol",162 % of control and 163 % of control
same,T/C,"dose: 6.0 mg/kg/injection, schedule: Q01DX009 (ip), vehicle: saline + alcohol",177 % of control
same,T/C,"dose: 6.25 mg/kg/injection, schedule: Q01DX009 (ip), vehicle: saline + alcohol",152 % of control
COc1cc2c(c3c1c(=O)c1cccc(F)c1n3C)C=CC(C)(C)O2,T/C,[8],112 % of control
same,T/C,[9],120 % of control
COc1ccccc1-n1cc[n+](C)c1/C=N/O,T/C,"dose: 25.0 mg/kg/injection, schedule: Q04DX004 (ip), vehicle: saline",101 % of control
same,T/C,"dose: 50.0 mg/kg/injection, schedule: Q04DX004 (ip), vehicle: saline",101 % of control
N#CC(=C1C=CC(=NO)C=C1)c1ccc(Cl)cc1,T/C,"dose: 600.0 mg/kg/injection, schedule: Q04DX004 (ip), vehicle: saline with Tween-80",96 % of control
COc1cc2c(c3c1/c(=N/N)c1ccccc1n3C)C=CC(C)(C)O2,T/C,[4],108 % of control
same,T/C,[5],110 % of control
same,T/C,[6],89 % of control
same,T/C,[7],104 % of control
COc1ccc(C(N)=O)cc1N=NN(C)C,T/C,"dose: 12.5 mg/kg/injection, schedule: Q04DX004 (ip), vehicle: Klucel (hydroxypropylcellulose) (HPC)",118 % of control and 121 % of control
same,T/C,[9],154 % of control and 179 % of control
O=C(CSc1nnc(CSc2ccc(Cl)cc2)n1-c1ccccc1)NC(=O)Nc1ccccc1,T/C,"dose: 4.69 mg/kg/injection, schedule: Q04DX004 (ip), vehicle: Klucel (hydroxypropylcellulose) (HPC)",103 % of control
same,T/C,"dose: 9.38 mg/kg/injection, schedule: Q04DX004 (ip), vehicle: Klucel (hydroxypropylcellulose) (HPC)",102 % of control
same,T/C,"dose: 18.75 mg/kg/injection, schedule: Q04DX004 (ip), vehicle: Klucel (hydroxypropylcellulose) (HPC)",88 % of control
same,T/C,"dose: 37.5 mg/kg/injection, schedule: Q04DX004 (ip), vehicle: Klucel (hydroxypropylcellulose) (HPC)",88 % of control and 89 % of control
CCOC(=O)CNCc1cc(=O)[nH]c2cc(Cl)ccc12,T/C,[4],99 % of control
same,T/C,[5],99 % of control
same,T/C,[6],101 % of control
same,T/C,[7],99 % of control
same,T/C,"dose: 400.0 mg/kg/injection, schedule: Q04DX004 (ip), vehicle: saline with Tween-80",94 % of control
O=C(Nc1ccc([N+](=O)[O-])cc1)C1C(=O)C(=O)N(c2ccc([N+](=O)[O-])cc2)C1=O (centres undefined),T/C,"dose: 50.0 mg/kg/injection, schedule: Q04DX004 (ip), vehicle: Klucel + Tween-80",96 % of control
same,T/C,"dose: 100.0 mg/kg/injection, schedule: Q04DX004 (ip), vehicle: Klucel + Tween-80",104 % of control
same,T/C,"dose: 200.0 mg/kg/injection, schedule: Q04DX004 (ip), vehicle: Klucel + Tween-80",92 % of control
Nc1ncnc2c1c1c(=O)[nH]c(=O)[nH]c1n2C1OC(CO)C(O)C1O (centres undefined),T/C,"dose: 50.0 mg/kg/injection, schedule: Q04DX004 (ip), vehicle: distilled water + Tween-80",106 % of control and 115 % of control
same,T/C,"dose: 100.0 mg/kg/injection, schedule: Q04DX004 (ip), vehicle: distilled water + Tween-80",117 % of control
same,T/C,"dose: 200.0 mg/kg/injection, schedule: Q04DX004 (ip), vehicle: distilled water + Tween-80",104 % of control and 108 % of control
same,T/C,"dose: 400.0 mg/kg/injection, schedule: Q04DX004 (ip), vehicle: distilled water + Tween-80",116 % of control
CCCCNc1ccc2nnc(C)n2n1,T/C,"dose: 25.0 mg/kg/injection, schedule: Q04DX004 (ip), vehicle: DMSO",99 % of control
same,T/C,"dose: 50.0 mg/kg/injection, schedule: Q04DX004 (ip), vehicle: DMSO",92 % of control and 100 % of control
same,T/C,"dose: 100.0 mg/kg/injection, schedule: Q04DX004 (ip), vehicle: DMSO",94 % of control and 96 % of control
same,T/C,"dose: 200.0 mg/kg/injection, schedule: Q04DX004 (ip), vehicle: DMSO",92 % of control and 101 % of control
